14 compounds from patent US7897774B2, “Cyclic compound having quinolylalkylthio group” (Santen Pharmaceutical Co., Ltd., priority 2005, dated 2011) can be followed below.

For the first assay, the system named is VEGF-induced HUVEC proliferation. Description: VEGF-induced HUVEC proliferation reaction evaluation system (cell proliferation inhibitory action test, WST-8). Particulars: HUVEC 2×10^3 cells per well in 100 μL; 5 μL of 20 μg/mL test compound solution per well; 5 μL of 400 ng/mL VEGF solution; WST-8 three days after VEGF, absorbance at 450 nm; control 1.0% DMSO. Type of assay: cell-based, human. The procedure:
In order to find the usefulness of the compound of the present invention, a test for inhibitory effects of the compound of the present invention on cell proliferation was carried out using a VEGF-induced HUVEC proliferation reaction evaluation system (HUVEC: human umbilical vein endothelial cells), which is a method of evaluating antiangiogenic effects of drugs, and the antiangiogenic effects of the compound were evaluated.
As one of the widely used methods of evaluating antiangiogenic effects of drugs, a cell proliferation inhibitory action test using a VEGF-induced HUVEC proliferation reaction evaluation system has been reported in Cancer Res., 59, 99-106 (1999). According to the method described in the above-mentioned document, a cell proliferation inhibitory action test of the compounds of the present invention was carried out, and the cell proliferation inhibition rate was calculated. Then, the antiangiogenic effect of each of the compounds of the present invention was evaluated using the obtained rate as an index.
Each test compound was dissolved in dimethyl sulfoxide (hereinafter abbreviated as DMSO), and the obtained solution was diluted with a commercially available phosphate buffer solution (hereinafter abbreviated as PBS), whereby a 20 μg/mL test compound solution was prepared.
HUVEC was suspended in F12K medium containing 0.5% fetal bovine serum (hereinafter abbreviated as FBS), whereby a 2×10^4 cells/mL HUVEC suspension was prepared.
VEGF was dissolved in PBS containing 0.1% bovine serum albumin, and the obtained solution was diluted with F12K medium containing 0.5% FBS, whereby a 400 ng/mL VEGF solution was prepared.
1) The HUVEC suspension was inoculated in an amount of 100 μL into each well of a 96-well plate coated with type I collagen (2×10^3 cells per well).
2) One day after the inoculation, the test compound solution was added in an amount of 5 μL per well.
3) One hour after the addition of the test compound solution, the VEGF solution was added in an amount of 5 μL per well.
4) Three days after the addition of the VEGF solution, WST-8 assay reagent (Dojin Chemical Co., Ltd.) was added in an amount of 10 μL per well.
5) After 3 hours, the above-mentioned plate was attached to an absorptiometer (Multilabel Counter ARVO), and an absorbance at 450 nm of suspension in each well (hereinafter referred to as a test compound suspension) was measured.
6) A test was carried out in the same manner as in the above 1) to 5) except that 1.0% DMSO was used instead of the test compound solution. The result was used as a control.
Incubation was carried out under conditions of 37° C., 5% carbon dioxide and […] in an incubator throughout the above-mentioned test steps.
The cell proliferation inhibition rate (%), which was used as an index of an antiangiogenic effect, was calculated using the following calculation equation.
(Calculation Equation) Cell proliferation inhibition rate (%)=100−{(Absorbance of test compound suspension−A)/(absorbance of control−A)}×100 A: Absorbance of only cell suspension (cells+medium) (Test Results and Discussion)
As to `Cc1cc(C)cc(NC(=O)c2cccnc2SCc2cc[n+]([O-])c3ccccc23)c1` [Compound 1-35, N-(3,5-Dimethylphenyl)-2-(1-oxoquinolin-4-ylmethylthio)pyridine-3-carboxamide], the “Cell proliferation inhibition rate (%)” value was found to be 100%.

Staying with this assay, now noted: Homo sapiens, 72 h; HUVEC 2×10^3 cells per well in 100 μL; 5 μL of 20 μg/mL test compound solution per well; 5 μL of 400 ng/mL VEGF solution; WST-8 three days after VEGF, absorbance at 450 nm; control 1.0% DMSO; read-out: Cell proliferation inhibition rate (%).
On to `O=C(Nc1ccc(Cl)cc1)c1cccnc1SCc1ccnc2ccccc12` [Compound 1-1, N-(4-Chlorophenyl)-2-(quinolin-4-ylmethylthio)pyridine-3-carboxamide], for which the inhibition at 20 µg/mL (stock) is 100%. For `Cc1cc(C)cc(NC(=O)c2cccnc2SCc2ccnc3ccccc23)c1` [Compound 1-3, N-(3,5-Dimethylphenyl)-2-(quinolin-4-ylmethylthio)pyridine-3-carboxamide], the inhibition at 20 µg/mL (stock) is 100%.

With `COc1ccc(CCNC(=O)c2ccccc2SCc2ccnc3ccccc23)cc1` [Compound 1-26, N-[2-(4-Methoxyphenyl)ethyl]-2-(quinolin-4-ylmethylthio)benzamide], the inhibition at 20 µg/mL (stock) came out at 97%.

`COc1cc2nccc(CSc3ncccc3C(=O)Nc3cc(C)cc(C)c3)c2cc1OC` [Compound 1-30, 2-(6,7-Dimethoxyquinolin-4-ylmethylthio)-N-(3,5-dimethylphenyl)pyridine-3-carboxamide]: the inhibition at 20 µg/mL (stock) stood at 70%. For the compound `COc1cc2nccc(CSc3ncccc3C(=O)Nc3cccc(Cl)c3)c2cc1OC` [Compound 1-31, N-(3-Chlorophenyl)-2-(6,7-dimethoxyquinolin-4-ylmethylthio)pyridine-3-carboxamide], the inhibition at 20 µg/mL (stock) is 88%. Still for that read-out and setting: to `Cc1cccc(NC(=O)c2cccnc2SCc2ccnc3cc(Cl)c(Cl)cc23)c1` [Compound 1-33, 2-(6,7-Dichloroquinolin-4-ylmethylthio)-N-(3-methylphenyl)pyridine-3-carboxamide] belongs 100%; to `Cc1cc(C)cc(NC(=O)c2cccnc2SCc2ccc3ncccc3c2)c1` [Compound 1-36, N-(3,5-Dimethylphenyl)-2-(quinolin-6-ylmethylthio)pyridine-3-carboxamide], 100%. As for `O=C(Nc1cccc(Cl)c1)c1cccnc1SCc1ccc2ncccc2c1` [Compound 1-38, N-(3-Chlorophenyl)-2-(quinolin-6-ylmethylthio)pyridine-3-carboxamide], the inhibition at 20 µg/mL (stock) is 100%. Still for that read-out and setting: to `Cc1cc(C)cc(NC(=O)c2cccnc2SCc2cnc3ccccc3c2)c1` [Compound 1-39, N-(3,5-Dimethylphenyl)-2-(quinolin-3-ylmethylthio)pyridine-3-carboxamide] belongs 100%; to `O=C(Nc1ccc(OC(F)(F)F)cc1)c1cccnc1SCc1ccnc2ccccc12` [Compound 2-1, 2-(Quinolin-4-ylmethylthio)-N-(4-trifluoromethoxyphenyl)pyridine-3-carboxamide], 100%. The same measure, in the same setting: to `Cc1cc(C)cc(NC(=O)c2ccccc2SCc2ccnc3ccccc23)c1` [Compound 2-2, N-(3,5-Dimethylphenyl)-2-(quinolin-4-ylmethylthio)benzamide] belongs 100%. The same measure, in the same setting: with `O=C(Nc1ccc(Cl)cc1)c1ccccc1SCc1ccnc2ccccc12` [Compound 2-3, N-(4-Chlorophenyl)-2-(quinolin-4-ylmethylthio)benzamide] the figure was 100%; with `Cc1cc(C)cc(NC(=O)c2sccc2SCc2ccnc3ccccc23)c1` [Compound 2-8, N-(3,5-Dimethylphenyl)-3-(quinolin-4-ylmethylthio)thiophene-2-carboxamide], 100%.
